Measured values taken from the supplement of paper PMC10307832.

What was measured:
Assay in all cases: relative viability (nuclei count vs DMSO), 5 days (fraction); higher = more cells survive
[1] = compound: CN(C)C[C@@H]1CCn2cc(c3ccccc32)C2=C(C(=O)NC2=O)c2cn(c3ccccc23)CCO1 [Ruboxistaurin] + CC1(C)CCC(c2ccc(Cl)cc2)=C(CN2CCN(c3ccc(C(=O)NS(=O)(=O)c4ccc(N[C@H](CCN5CCOCC5)CSc5ccccc5)c(S(=O)(=O)C(F)(F)F)c4)cc3)CC2)C1 [Navitoclax] (partner 0.5 µM)
Procedure, shortened: (§1)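 Medians of duplicate plates are given as relative viability. That measure is the nuclei count in treated wells divided by the count in vehicle wells. Counts were taken on 4× images of lung cancer cell lines in 1536-well plates, 5 days after pin-tool dosing the day after seeding with one drug alone or a fixed anchor-drug dose plus five library-drug doses (not always all listed) in √10 steps.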

[2] = compound: CN(C)C[C@@H]1CCn2cc(c3ccccc32)C2=C(C(=O)NC2=O)c2cn(c3ccccc23)CCO1 [Ruboxistaurin] + CS(=O)(=O)N1CCN(Cc2cc3nc(-c4cccc5[nH]ncc45)nc(N4CCOCC4)c3s2)CC1 [Pictilisib] (partner 1 µM)
Procedure, shortened: as §1

[3] = compound: CN(C)C[C@@H]1CCn2cc(c3ccccc32)C2=C(C(=O)NC2=O)c2cn(c3ccccc23)CCO1 [Ruboxistaurin] + Nc1ncn([C@H]2C[C@H](O)[C@@H](CO)O2)c(=O)n1 [Decitabine] (partner 2 µM)
Procedure, shortened: as §1

Ruboxistaurin + OSI-027 = compound: CN(C)C[C@@H]1CCn2cc(c3ccccc32)C2=C(C(=O)NC2=O)c2cn(c3ccccc23)CCO1 [Ruboxistaurin] + COc1cccc2cc(-c3nc([C@H]4CC[C@H](C(=O)O)CC4)n4ncnc(N)c34)[nH]c12 [OSI-027] (partner 0.5 µM)
Procedure, shortened: as §1

Ruboxistaurin = compound: CN(C)C[C@@H]1CCn2cc(c3ccccc32)C2=C(C(=O)NC2=O)c2cn(c3ccccc23)CCO1 [Ruboxistaurin]
Procedure, shortened: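 Cells of lung cancer lines were placed in 1536-well plates and kept overnight at 37 °C. Pinning then delivered five library-drug doses (not always all listed), spaced by √10, onto plates anchored with vehicle, and the cells were left 5 days without changing medium. One step fixed, permeabilised and stained them with Hoechst, and MetaXpress counted nuclei in 4× images. Viability, as a median over plates, is treated-well nuclei divided by vehicle-well nuclei, with acceptance only at control CV below 25% and at least one doubling.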

Cell Line | relative viability ([1]; first compound 0.08 µM) | relative viability ([1]; first compound 0.8 µM) | relative viability ([1]; first compound 2.53 µM) | relative viability ([1]; first compound 8 µM) | relative viability ([2]; first compound 0.08 µM) | relative viability ([2]; first compound 0.8 µM) | relative viability ([2]; first compound 2.53 µM) | relative viability ([2]; first compound 8 µM) | relative viability ([3]; first compound 0.08 µM) | relative viability ([3]; first compound 0.8 µM) | relative viability ([3]; first compound 2.53 µM) | relative viability ([3]; first compound 8 µM) | relative viability (Ruboxistaurin + OSI-027; first compound 0.08 µM) | relative viability (Ruboxistaurin + OSI-027; first compound 0.8 µM) | relative viability (Ruboxistaurin + OSI-027; first compound 2.53 µM) | relative viability (Ruboxistaurin + OSI-027; first compound 8 µM) | relative viability (Ruboxistaurin; 0.08 µM) | relative viability (Ruboxistaurin; 0.8 µM) | relative viability (Ruboxistaurin; 2.53 µM) | relative viability (Ruboxistaurin; 8 µM)
201T | 1.21 | 1.18 | 1.24 | 1.25 | 0.729 | 0.629 | 0.742 | 0.555 | 0.858 | 0.834 | 0.824 | 0.914 | 0.694 | 0.723 | 0.675 | 0.59 | 1.03 | 0.98 | 1.01 | 0.973
A-427 | 0.947 | 0.816 | 0.831 | 0.752 | 0.7 | 0.594 | 0.738 | 0.557 | 0.605 | 0.527 | 0.564 | 0.548 | 0.506 | 0.406 | 0.458 | 0.343 | 0.997 | 0.871 | 0.924 | 0.821
ABC-1 | – | – | – | – | 0.865 | 0.774 | 0.787 | 0.506 | 1.19 | 0.696 | 1.26 | 0.942 | 0.692 | 0.386 | 0.481 | 0.331 | 1.16 | 0.951 | 1.16 | 0.89
BEN | 0.0424 | 0.0646 | 0.0707 | 0.114 | 0.604 | 0.538 | 0.535 | 0.406 | 0.815 | 0.698 | 0.724 | 0.549 | 0.347 | 0.31 | 0.262 | 0.286 | 1.05 | 0.902 | 0.877 | 0.857
CAL-12T | 1.22 | 1.28 | 1.31 | 1.26 | 0.482 | 0.349 | 0.395 | 0.386 | – | – | – | – | 0.797 | 0.449 | 0.69 | 0.391 | 1.15 | 0.879 | 1.03 | 1.09
COR-L23 | 1.16 | 1.01 | 1.03 | 0.998 | 0.802 | 0.688 | 0.676 | 0.59 | 0.427 | 0.384 | 0.467 | 0.487 | 0.759 | 0.637 | 0.712 | 0.391 | 1.1 | 0.955 | 1.14 | 1.17
COR-L 105 | 0.741 | 0.64 | 0.776 | 0.807 | 0.463 | 0.388 | 0.385 | 0.313 | 0.618 | 0.595 | 0.681 | 0.611 | 0.881 | 0.565 | 0.62 | 0.443 | 1.08 | 0.803 | 0.949 | 0.782
ChaGo-K-1 | 1.38 | 1.08 | 0.925 | 0.703 | 1.23 | 0.758 | 0.655 | 0.424 | 0.592 | 0.487 | 0.53 | 0.535 | 0.658 | 0.572 | 0.618 | 0.449 | 1.06 | 0.976 | 1.06 | 0.961
EKVX | 0.981 | 0.903 | 1.03 | 0.882 | 0.53 | 0.423 | 0.438 | 0.354 | 0.334 | 0.246 | 0.34 | 0.426 | 0.734 | 0.751 | 0.709 | 0.641 | 1.06 | 0.928 | 1.02 | 0.884
EMC-BAC-2 | 1.28 | 1.08 | 1.11 | 1.05 | 0.59 | 0.47 | 0.491 | 0.426 | 0.968 | 0.949 | 0.979 | 0.842 | 0.399 | 0.343 | 0.362 | 0.258 | 1.05 | 0.957 | 0.95 | 0.84
EPLC-272H | 1.28 | 0.96 | 1.41 | 1.18 | 0.341 | 0.303 | 0.343 | 0.294 | 0.473 | 0.289 | 0.354 | 0.341 | 0.308 | 0.266 | 0.298 | 0.249 | 1.12 | 0.794 | 0.928 | 0.857
H3255 | 0.548 | 0.438 | 0.519 | 0.478 | 0.566 | 0.521 | 0.498 | 0.462 | 0.608 | 0.54 | 0.603 | 0.538 | 0.686 | 0.501 | 0.633 | 0.577 | 1.09 | 0.919 | 0.99 | 0.99
HARA | 1.2 | 1.16 | 1.14 | 1.14 | 0.431 | 0.327 | 0.325 | 0.137 | 0.502 | 0.496 | 0.567 | 0.592 | 0.677 | 0.356 | 0.488 | 0.305 | 0.978 | 0.918 | 0.976 | 0.929
HCC-15 | 0.724 | 0.64 | 0.71 | 0.62 | 0.774 | 0.689 | 0.558 | 0.662 | 0.699 | 0.576 | 0.666 | 0.685 | 0.701 | 0.617 | 0.623 | 0.582 | 1.06 | 0.953 | 1.07 | 1.04
HCC-44 | 1.05 | 0.883 | 1.02 | 0.971 | 0.622 | 0.37 | 0.596 | 0.511 | 0.974 | 0.882 | 1.01 | 1.02 | 0.576 | 0.403 | 0.481 | 0.59 | 1.01 | 0.979 | 1.01 | 1.07
HCC-78 | 0.802 | 0.686 | 0.812 | 0.793 | 0.198 | 0.245 | 0.195 | 0.174 | 0.636 | 0.663 | 0.756 | 0.635 | 0.346 | 0.335 | 0.316 | 0.3 | 1.11 | 0.996 | 1.1 | 0.949
HCC-366 | 1.05 | 0.81 | 1.16 | 0.995 | 0.237 | 0.116 | 0.151 | 0.137 | 0.361 | 0.351 | 0.325 | 0.317 | 0.965 | 0.675 | 0.869 | 0.411 | 0.989 | 0.95 | 1.02 | 1.05
HCC-827 | 1.05 | 1.05 | 1.01 | 1.04 | 0.993 | 0.866 | 1.08 | 1.27 | 0.349 | 0.344 | 0.376 | 0.319 | 0.889 | 0.82 | 0.772 | 0.605 | 1.05 | 1.03 | 1.09 | 1.09
HOP-62 | 1.15 | 1 | 1.12 | 1.35 | 0.732 | 0.755 | 0.535 | 0.546 | 0.21 | 0.242 | 0.251 | 0.268 | 0.884 | 0.783 | 0.826 | 0.753 | 1.05 | 1.02 | 1.11 | 1.16
IA-LM | 0.852 | 0.722 | 0.862 | 0.987 | 0.389 | 0.271 | 0.381 | 0.323 | – | – | – | – | – | – | – | – | 0.959 | 0.79 | 0.981 | 1
LC-2-ad | 0.474 | 0.395 | 0.557 | 0.345 | 0.481 | 0.347 | 0.495 | 0.286 | 0.71 | 0.887 | 0.753 | 0.847 | 0.935 | 0.842 | 0.86 | 0.781 | 1.06 | 0.935 | 1.04 | 1.08
LCLC-97TM1 | 0.672 | – | 0.332 | 0.411 | 0.221 | – | 0.161 | 0.127 | 0.179 | 0.191 | 0.278 | 0.231 | 0.508 | 0.547 | 0.482 | 0.243 | 0.905 | 0.948 | 1.08 | 0.906
LCLC-103H | – | – | – | – | 0.632 | 0.611 | 0.511 | 0.533 | 0.805 | 0.648 | 0.726 | 0.699 | 0.46 | 0.384 | 0.407 | 0.357 | 0.998 | 0.887 | 0.894 | 0.841
NCI-H358 | – | – | – | – | 0.326 | 0.297 | 0.3 | 0.235 | 0.227 | 0.205 | 0.246 | 0.256 | 0.95 | 0.642 | 0.787 | 0.471 | 1.14 | 0.881 | 0.984 | 0.712
NCI-H522 | – | – | – | – | – | – | – | – | 0.753 | 0.671 | 0.667 | 0.658 | 0.741 | 0.783 | 0.909 | 0.689 | 0.949 | 1.05 | 0.869 | 0.892
NCI-H650 | – | – | – | – | 1.15 | 0.831 | 0.848 | 0.808 | 0.312 | 0.343 | 0.296 | 0.34 | 0.662 | 0.49 | 0.584 | 0.523 | 1.19 | 0.864 | 0.98 | 1.02
NCI-H661 | – | – | – | – | 0.463 | 0.499 | 0.493 | 0.422 | 0.563 | 0.555 | 0.578 | 0.61 | 0.78 | 0.599 | 0.695 | 0.6 | 1.03 | 0.962 | 1.05 | 1.04
NCI-H1703 | 1.14 | 0.992 | 0.991 | 0.525 | 0.198 | – | 0.277 | 0.23 | – | – | – | – | – | – | – | – | 1.19 | 0.697 | 0.876 | 0.724
NCI-H2228 | 0.922 | 0.907 | 1.15 | 0.692 | 0.431 | 0.358 | 0.345 | 0.335 | – | – | – | – | 0.6 | 0.439 | 0.549 | 0.281 | 0.94 | 0.89 | 1.01 | 0.93
SW 900 | – | – | – | – | – | – | – | – | 0.4 | 0.395 | 0.5 | 0.566 | 0.555 | 0.5 | 0.593 | 0.422 | 0.897 | 0.897 | 1.14 | 0.958
